Experimental data reported in ChEMBL document CHEMBL3217555, “Potent and selective inhibitors of human peptidylglycine -amidating monooxygenase” (Medchemcomm, 2011).
Where a SMILES comes first, the peptide text is derived from it.

How the values were obtained:
[1] = (§1) Competitive binding affinity to Xenopus laevis PAM using (R)-Tyr-(S)-ValGly as substrate after 1 hr by HPLC analysis
Xenopus laevis = species on record: Xenopus laevis; assay: as §1
[2] = target: T1, Peptidyl-glycine alpha-amidating monooxygenase (Homo sapiens, UniProt P19021); assay: (§2) Competitive binding affinity to PAM extracted from human H889 cells using (R)-Tyr-(S)-ValGly as substrate after 2 hrs by HPLC analysis
T1 sequence (P19021 whole entry): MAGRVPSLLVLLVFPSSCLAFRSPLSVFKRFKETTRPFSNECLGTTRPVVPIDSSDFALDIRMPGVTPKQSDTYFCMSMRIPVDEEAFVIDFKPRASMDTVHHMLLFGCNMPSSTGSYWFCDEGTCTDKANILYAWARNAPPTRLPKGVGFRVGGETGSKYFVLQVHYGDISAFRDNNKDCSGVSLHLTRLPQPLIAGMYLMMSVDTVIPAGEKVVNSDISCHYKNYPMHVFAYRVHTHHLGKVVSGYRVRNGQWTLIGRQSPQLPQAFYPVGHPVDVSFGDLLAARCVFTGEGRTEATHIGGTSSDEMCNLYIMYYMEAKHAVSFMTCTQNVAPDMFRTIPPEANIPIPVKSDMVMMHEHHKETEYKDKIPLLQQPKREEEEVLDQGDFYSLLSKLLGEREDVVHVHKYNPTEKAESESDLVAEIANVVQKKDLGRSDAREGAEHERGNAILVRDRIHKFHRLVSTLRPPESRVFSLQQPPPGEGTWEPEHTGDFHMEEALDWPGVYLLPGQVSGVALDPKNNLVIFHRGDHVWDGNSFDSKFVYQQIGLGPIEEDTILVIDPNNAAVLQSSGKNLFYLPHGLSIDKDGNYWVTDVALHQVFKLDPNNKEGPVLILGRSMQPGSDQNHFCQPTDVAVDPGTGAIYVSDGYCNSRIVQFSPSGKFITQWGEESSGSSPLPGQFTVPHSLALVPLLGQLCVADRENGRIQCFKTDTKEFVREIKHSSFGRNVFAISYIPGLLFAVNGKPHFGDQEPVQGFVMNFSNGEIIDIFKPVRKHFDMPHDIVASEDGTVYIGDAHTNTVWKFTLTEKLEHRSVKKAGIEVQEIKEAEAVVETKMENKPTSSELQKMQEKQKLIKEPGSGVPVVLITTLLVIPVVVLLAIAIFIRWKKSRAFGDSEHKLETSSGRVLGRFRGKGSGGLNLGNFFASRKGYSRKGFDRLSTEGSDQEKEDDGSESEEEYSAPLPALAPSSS

[3] = target: T1, Peptidyl-glycine alpha-amidating monooxygenase; assay: Competitive binding affinity to PAM extracted from human DMS53 cells using (R)-Tyr-(S)-ValGly as substrate after 2 hrs by HPLC analysis; design: species or system DMS-53
[4] = target: T1, Peptidyl-glycine alpha-amidating monooxygenase; assay: Competitive binding affinity to PAM secreted from human DMS53 cells using (R)-Tyr-(S)-ValGly as substrate after 2 hrs by HPLC analysis; design: species or system DMS-53
H889 = assay: Selectivity ratio of IC50 for Xenopus laevis PAM to IC50 for PAM extracted from human H889 cells; assay type: cell-based
[5] = target: T1, Peptidyl-glycine alpha-amidating monooxygenase; assay: Competitive inhibition of PAM secreted from human PC3 cells by Dixon plot analysis; assay type: cell-based, PC-3
[6] = target: T1, Peptidyl-glycine alpha-amidating monooxygenase; assay: Competitive binding affinity to PAM extracted from human PC3 cells using (R)-Tyr-(S)-ValGly as substrate after 2 hrs by HPLC analysis; design: species or system PC-3
[7] = target: T1, Peptidyl-glycine alpha-amidating monooxygenase; assay: Competitive binding affinity to PAM secreted from human SW1783 cells using (R)-Tyr-(S)-ValGly as substrate after 2 hrs by HPLC analysis
[8] = target: T2, Peptidyl-glycine alpha-amidating monooxygenase (Homo sapiens) (UniProt P19021); assay: Potency index, ratio of Procalcitonin Km(app) to compound IC50 for PAM extracted from human DMS53 cells; assay type: cell-based; details: DMS-53
T2 sequence (whole entry): T1 sequence (P19021 whole entry)

[9] = target: T2, Peptidyl-glycine alpha-amidating monooxygenase (Homo sapiens); assay: Potency index, ratio of Procalcitonin Km(app) to compound IC50 for PAM extracted from human H889 cells; assay type: cell-based
[10] = substrate: CC(=O)N[C@@H](Cc1ccccc1)C(=O)NCC(=O)O; assay: as §2
[11] = substrate: O=C(O)CNC(=O)Cc1ccccc1; assay: as §2
[12] = target: Peptidyl-glycine alpha-amidating monooxygenase (Homo sapiens) (UniProt P19021); assay: Competitive binding affinity to PAM extracted from human H889 cells using (R)-Tyr-(S)-ValGly as substrate after 2 hrs by HPLC analysis

For `CC(=O)N[C@@H](CC(C)C)C(=O)SCC(=O)O`, the IC50 [1] was 260 µM.

`CC(=O)N[C@@H](Cc1ccccc1)C(=O)NCC(=O)O` (Ac-Phe-Gly-OH) gave a Km (Xenopus laevis) of 170 µM.

`CCCCCC(=O)OCC(=O)O` gave an IC50 [1] of 780 µM.

Work on `CC(=O)N[C@@H](Cc1ccccc1)C(=O)SCC(=O)O` yielded an IC50 [1] of 25 µM and an IC50 [2] of 45000 nM.

Molecule `O=C(O)COC(=O)c1ccccc1` has an IC50 [1] of 250 µM.

Molecule `CSCC[C@H](NC(C)=O)C(=O)SCC(=O)O` has an IC50 [1] of 50 µM.

Work on `O=C(O)CNC(=O)Cc1ccccc1` yielded a Km (Xenopus laevis) of 440 µM.

In the case of `CCCCCCCCCC(=O)SCC(=O)O`, the IC50 [1] is reported as 9 µM.

Work on `CCCCCCCCCCCCCC(=O)OCC(=O)O` yielded an IC50 [1] of 30 µM.

In the case of `O=C(O)CSC(=O)c1ccccc1`, the IC50 [1] is reported as 150 µM.

With `CCCCCCCCCC(=O)NCC(=O)O` the Km (Xenopus laevis) was 440 µM, the IC50 [3] was 30 µM and the IC50 [4] was 110 µM.

Work on `O=C(O)CSC(=O)Cc1ccccc1` yielded an IC50 [1] of 20 µM and an IC50 [2] of 45000 nM.

With `O=C(O)COC(=O)Cc1ccccc1` the IC50 [1] was 510 µM, the IC50 [2] was 2000 nM and the Ratio IC50 (H889) was > 250.

For `CCCCCCCC(=O)OCC(=O)O`, the IC50 [1] was 250 µM.

In the case of `CC(=O)N[C@@H](Cc1ccccc1)C(=O)OCC(=O)O`, the IC50 [1] is reported as > 2000 µM.

`CCCCCCCCCCCC(=O)OCC(=O)O` showed an IC50 [1] of 35 µM and an IC50 [2] of 60 nM.

Molecule `O=C(O)C/C=C/c1ccccc1` has a Ki [5] of 96 nM.

In the case of `CCCCCCCCCC(=O)OCC(=O)O`, the IC50 [1] is reported as 40 µM, the IC50 [2] is reported as 50 nM and the IC50 [3] is reported as 0.04 µM. It also gave an IC50 [4] of 30 µM, an IC50 [6] of 120 nM and an IC50 [7] of 30 µM. The Ratio IC50 (H889) was 800, the Ratio [8] was 5000 and the Ratio [9] was 6000.

B1: Peptidyl-glycine alpha-amidating monooxygenase (Homo sapiens), P19021 (protein)
chain: T1 sequence (P19021 whole entry)
Molecule B1 has a Km [10] of 15 µM, a Km [11] of 330 µM and a Km [12] of 200 µM.
